# Measurements taken from patent US6503492B2, “Antiperspirant or deodorant compositions” (priority 2001, dated 2003).
# “And” between values parts separate entries of the source, which are not always exact repeats. Equal values may be shown once.
# Assays:
# histamine-induced itch [1] = test: Histamine-induced itch, test material topically applied in Aqueous Cream BP (histamine iontophoresis, VAS); details: for Itch score (area under the curve): VAS area 0 to 5 min; for Itch score % of control: versus vehicle alone
# histamine-induced itch [2] = test: Histamine-induced itch, test material topically applied in ethanol:Vaseline Intensive Care Lotion; type: in vivo, human; details: for Anti-pruritic action (in words): comparison N-acyl ethanolamides in ethanol:VICL lotion; for Itch score % of control: comparison N-acyl ethanolamides, 50 mM in ethanol, in ethanol:VICL lotion, versus vehicle alone of the same run
# Protocol: This mixture was applied (250 μl/5 cm^2-5 times at 1 h intervals) and histamine iontophoresis was performed on the treated site in the method described in Example 2. The vehicle control was ethanol:VICL (volume ratio 1:1).
# Related molecules stearylethanolamine (SEA; 50 mM in ethanol) and linoleoylethanolamine (LAMEA; 50 mM in ethanol) were tested as potential activating agents for a CBR, employing the test method described in Example 3 and applied in the ethanol:VICL lotion.
# [3] = test system: skin organotypic cultures (Epiderm™); test: Skin organotypic culture: antiperspirant (APF1)-induced IL-6 release, ELISA; details: for IL-6 pg/ml ± SD: APF1 topically, 24h
# histamine-induced itch [4] = test: Histamine-induced itch, test material applied under water-impermeable patch for 24 hours; details: PEA 100 mM under patch
# [5] = test system: antiperspirant-induced irritation; test: Antiperspirant-induced irritation in vivo, 47 h Finn chamber patch test, erythema grading; design: species or system human
# Protocol: In this Example, patch tests were performed on a mixed panel of 49 volunteers with age ranges between 18 and 55, using a double-blind protocol with randomized patch sites. Samples (20 mg) were applied to a filter paper that was placed within a Finn chamber (0.8 cm internal diameter). The chambers were then attached to the volar forearm using Scanpore™ tape (Norgesplater, Nor.) and left for 47 h. At the end of the 47 h period, the patches were removed and the site was left open for 5 h when the erythema associated with the patch was visually assessed and scored using an in-house standard assessment Patch Grading Scale as set out below.
# [6] = AEA 5% (w/v) in Aqueous Cream BP
compound,measurement,setting,value
"CCCCC/C=C\C/C=C\C/C=C\C/C=C\CCCC(=O)NCCO [AEA, (all Z)-N-(2-Hydroxyethyl)-5,8,11,14-eicosatetraenamide]",Itch score (area under the curve),histamine-induced itch [1]; [6],1322
same,Itch score % of control,histamine-induced itch [1]; [6],76 % of control
same,Effect on histamine-induced itch (in words),histamine-induced itch [1]; anandamide topically applied,inhibitor of histamine-induced itch
"CCCCC/C=C\C/C=C\CCCCCCCC(=O)NCCO [LAMEA, linoleoylethanolamine]",Anti-pruritic action (in words),histamine-induced itch [2],unable to demonstrate any anti-pruritic action or even appeared to exacerbate the itch response
same,Itch score % of control,histamine-induced itch [2],169 % of control and 108 % of control and 100 % of control
"CCCCCCCCCCCCCCCCCC(=O)NCCO [SEA, stearylethanolamine]",Anti-pruritic action (in words),histamine-induced itch [2],unable to demonstrate any anti-pruritic action or even appeared to exacerbate the itch response
same,Itch score % of control,histamine-induced itch [2],231 % of control and 260 % of control and 190 % of control
"CCCCCCC(C)(C)c1cc(O)c2c(c1)OC(C)(C)[C@@H]1CC=C(CO)C[C@@H]21 [HU-210, (6aR)-trans-3-(1,1-Dimethylheptyl)-6a,7,10,10a-tetrahydro-1-hydroxy-6,6-dimethyl-6H-dibenzo[b,d]pyran-9-methanol]",Itch score % of control,histamine-induced itch [1]; HU-210 0.05% (w/v) in Aqueous Cream BP,7.3 % of control
same,Itch score (area under the curve),"histamine-induced itch [1]; HU-210 0.05% (w/v) in Aqueous Cream BP, volar forearm, after 4 hours",101
same,Itch score % of control,histamine-induced itch [1]; HU-210 0.5% (w/v) in Aqueous Cream BP,6.2 % of control
same,Itch score (area under the curve),"histamine-induced itch [1]; HU-210 0.5% (w/v) in Aqueous Cream BP, volar forearm, after 4 hours",119
same,Effect on histamine-induced itch (in words),histamine-induced itch [1]; HU-210 topically applied in Aqueous Cream BP,capable of reducing histamine-induced itch
"CCCCCCCCCCCCCCCC(=O)NCCO [PEA, Palmitoylethanolamide]",IL-6 pg/ml ± SD,[3]; PEA 0.1 μM in the medium,38.3 ± 7.6 pg/mL
same,IL-6 pg/ml ± SD,[3]; PEA 1.0 μM in the medium,36.5 ± 11.6 pg/mL
same,IL-6 pg/ml ± SD,[3]; PEA 10.0 μM in the medium,59.5 ± 13.8 pg/mL
same,IL-6 pg/ml ± SD,[3]; PEA 100.0 μM in the medium,43.0 ± 7.9 pg/mL
same,IL-6 pg/ml ± SD,[3]; PEA 1000.0 μM in the medium,63.0 ± 24.8 pg/mL
same,AP-induced IL-6 release (in words),"[3]; PEA at all concentrations used, Dunnet's test p<0.05",significantly decrease AP-induced IL-6 release
same,Effect on histamine-induced itch (in words),histamine-induced itch [2]; PEA topically applied in the presence of a lotion,can inhibit histamine-induced itch
same,Effect on histamine-induced itch (in words),histamine-induced itch [4],can inhibit histamine-induced itch
same,Irritation induced by APF1 (in words),"[5]; 0.25% palmitoylethanolamide in APF1, Wilcoxon signed rank test, significance level 5%",reduced significantly
same,Mean Irritation Score,"[5]; APF1 with 0.25% PEA, 20 mg in Finn chamber 47 h, scored 5 h after removal, Patch Grading Scale 0-4, 49 volunteers",0.54
